Tests used:
[1] = test system: MaCa4151 breast cancer PDX model; assay: KcAng(1-7) on growth of breast carcinoma PDX MaCa4151 in mice; type: in vivo, NMRI nu/nu mice (human PDX)
Description: (§1) In vivo studies were conducted at EPO GmbH Berlin. Large studies (FIG. 1A, 2, 3, 4, 5) comprised 3 groups of 10 mice/group and 5 animals as reserve, as outlined in Table 1. Smaller studies (FIG. 1B, 1C, 1D) comprised 2 groups of mice of 3 mice per group. The animals were allocated to the various treatment groups (e.g. 0.2 μg/kg and 30 μg/kg) with a maximum of 10 animals per group. […] The groups received subcutaneous (s.c.) drug injection (for max. 28 days) as outlined in the Table 1.
(§2) NMRI nu/nu mice were used in this study. The animals were female at age of 6 to 8 weeks. The respective PDX tumors were inoculated subcutaneously (s.c.), and the tumors were grown to achieve palpable tumor sizes before start of the respective treatments. The PDX included breast (MaCa4151), colon (Co9689A), head & neck (HN10309), lung (Lu7433) and ovarian (OvCa13329) cancer (Table 2).
(§3) Treatment with KcAng(1-7) was started with palpable tumors after the randomization of animals regarding tumor volume. KcAng(1-7) was applied s.c. by daily injections at […] or 30 μg/kg dose for a maximum of 28 days (or earlier as defined by the humane end point for the study).
(§4) KcAng(1-7) was prepared as follows: The compounds was suspended in sterile PBS resulting in a clear solution. The remains of this formulation were stored at 4° C.
(§5) Tumor growth stimulatory or inhibitory activity of the KcAng(1-7) was evaluated by determination of tumor volumes (TV). During the study, tumor volumes and body weight were measured twice a week, and the ratio of the mean tumor volumes between the compound-treated group and the vehicle-treated group (T/C) was calculated.
(§6) Tumor volume=(tumor width)×(tumor width)×(tumor length)+2
(§7) T/C=T÷C • T: Mean estimated tumor volume of the compound-treated group • C: Mean estimated tumor volume of the vehicle-treated group

[2] = test system: OvCa13329 ovarian cancer PDX model; assay: KcAng(1-7) on growth of ovarian carcinoma PDX OvCa13329 in mice; type: in vivo, NMRI nu/nu mice (human PDX); settings: for optT/C: day 11 of the treatment
Description: as §1, §2, §3, §4, §5, §6, §7

[3] = Gr. B 0.2 μg/kg/d s.c., Day 21 (Meas. 1)
[4] = Gr. B 0.2 μg/kg/d s.c., Day 23 (Meas. 2)
[5] = Gr. B 0.2 μg/kg/d s.c., Day 26 (Meas. 3)
[6] = Gr. B 0.2 μg/kg/d s.c., Day 29 (Meas. 4)
[7] = Gr. B 0.2 μg/kg/d s.c., Day 34 (Meas. 5)
[8] = Gr. B 0.2 μg/kg/d s.c., Day 37 (Meas. 6)
[9] = Gr. C 30 μg/kg/d s.c., Day 21 (Meas. 1)
[10] = Gr. C 30 μg/kg/d s.c., Day 23 (Meas. 2)
[11] = Gr. C 30 μg/kg/d s.c., Day 26 (Meas. 3)
[12] = Gr. C 30 μg/kg/d s.c., Day 29 (Meas. 4)
[13] = Gr. C 30 μg/kg/d s.c., Day 34 (Meas. 5)
[14] = Gr. C 30 μg/kg/d s.c., Day 37 (Meas. 6)
[15] = Gr. B 0.2 μg/kg/d s.c., Day 7 (Meas. 1)
[16] = Gr. B 0.2 μg/kg/d s.c., Day 11 (Meas. 2)
[17] = Gr. B 0.2 μg/kg/d s.c., Day 14 (Meas. 3)
[18] = Gr. B 0.2 μg/kg/d s.c., Day 18 (Meas. 4)
[19] = Gr. B 0.2 μg/kg/d s.c., Day 21 (Meas. 5)
[20] = Gr. C 30 μg/kg/d s.c., Day 7 (Meas. 1)
[21] = Gr. C 30 μg/kg/d s.c., Day 11 (Meas. 2)
[22] = Gr. C 30 μg/kg/d s.c., Day 14 (Meas. 3)
[23] = Gr. C 30 μg/kg/d s.c., Day 18 (Meas. 4)
[24] = Gr. C 30 μg/kg/d s.c., Day 21 (Meas. 5)

Lys-Asp-Arg-Val-Abu/Ala-Ile-His-Abu/Ala (KDRVAIHA; not fully specified; cyclic thioether (Abu/Ala bridge); VARIANT (5)..(5) /replace=“Abu”; VARIANT (8)..(8) /replace=“Abu”; SITE (1)..(8) /note=“Variant residues given in the sequence have no preference with respect to those in the annotations for variant positions”) [KcAng(1-7)]
effect on tumor growth ([1]; 0.2 and 30 μg/kg, 17 days): did not resulted in an increase of tumor growth or reduced tumor growth
RTV Mean [1, 3]: 1
RTV Median [1, 3]: 1
T/C [1, 3]: 95.7%
Tumor Vol. Mean [1, 3]: 0.163 cm^3
Tumor Vol. Median [1, 3]: 0.131 cm^3
RTV Mean [1, 4]: 1.7
RTV Median [1, 4]: 1.6
T/C [1, 4]: 105.2%
Tumor Vol. Mean [1, 4]: 0.281 cm^3
Tumor Vol. Median [1, 4]: 0.241 cm^3
RTV Mean [1, 5]: 2.4
RTV Median [1, 5]: 2.2
T/C [1, 5]: 118.4%
Tumor Vol. Mean [1, 5]: 0.392 cm^3
Tumor Vol. Median [1, 5]: 0.368 cm^3
RTV Mean [1, 6]: 3.4
RTV Median [1, 6]: 3.2
T/C [1, 6]: 104.9%
Tumor Vol. Mean [1, 6]: 0.55 cm^3
Tumor Vol. Median [1, 6]: 0.491 cm^3
RTV Mean [1, 7]: 6.2
RTV Median [1, 7]: 5.2
T/C [1, 7]: 120.2%
Tumor Vol. Mean [1, 7]: 0.995 cm^3
Tumor Vol. Median [1, 7]: 1.021 cm^3
RTV Mean [1, 8]: 10.5
RTV Median [1, 8]: 7.6
T/C [1, 8]: 137%
Tumor Vol. Mean [1, 8]: 1.607 cm^3
Tumor Vol. Median [1, 8]: 1.452 cm^3
RTV Mean [1, 9]: 1
RTV Median [1, 9]: 1
T/C [1, 9]: 94.8%
Tumor Vol. Mean [1, 9]: 0.162 cm^3
Tumor Vol. Median [1, 9]: 0.157 cm^3
RTV Mean [1, 10]: 1.5
RTV Median [1, 10]: 1.5
T/C [1, 10]: 92.6%
Tumor Vol. Mean [1, 10]: 0.248 cm^3
Tumor Vol. Median [1, 10]: 0.165 cm^3
RTV Mean [1, 11]: 2.4
RTV Median [1, 11]: 2.5
T/C [1, 11]: 122.3%
Tumor Vol. Mean [1, 11]: 0.405 cm^3
Tumor Vol. Median [1, 11]: 0.383 cm^3
RTV Mean [1, 12]: 4
RTV Median [1, 12]: 4
T/C [1, 12]: 125%
Tumor Vol. Mean [1, 12]: 0.655 cm^3
Tumor Vol. Median [1, 12]: 0.671 cm^3
RTV Mean [1, 13]: 6.8
RTV Median [1, 13]: 6.5
T/C [1, 13]: 130.6%
Tumor Vol. Mean [1, 13]: 1.081 cm^3
Tumor Vol. Median [1, 13]: 1.072 cm^3
RTV Mean [1, 14]: 9.8
RTV Median [1, 14]: 9.1
T/C [1, 14]: 131.2%
Tumor Vol. Mean [1, 14]: 1.539 cm^3
Tumor Vol. Median [1, 14]: 1.522 cm^3
optT/C ([2]; 0.2 μg/kg): 55.8%
optT/C ([2]; 30 μg/kg): 51%
effect on tumor volume ([2]; 0.2 and 30 μg/kg, 15 days): significant reduction in tumor volume
RTV Mean [2, 15]: 1
RTV Median [2, 15]: 1
T/C [2, 15]: 102.4%
Tumor Vol. Mean [2, 15]: 0.122 cm^3
Tumor Vol. Median [2, 15]: 0.123 cm^3
RTV Mean [2, 16]: 1.6
RTV Median [2, 16]: 1.5
T/C [2, 16]: 55.8%
Tumor Vol. Mean [2, 16]: 0.192 cm^3
Tumor Vol. Median [2, 16]: 0.181 cm^3
RTV Mean [2, 17]: 3.1
RTV Median [2, 17]: 3
T/C [2, 17]: 68.5%
Tumor Vol. Mean [2, 17]: 0.384 cm^3
Tumor Vol. Median [2, 17]: 0.337 cm^3
RTV Mean [2, 18]: 8.5
RTV Median [2, 18]: 8
T/C [2, 18]: 73.9%
Tumor Vol. Mean [2, 18]: 0.985 cm^3
Tumor Vol. Median [2, 18]: 1.015 cm^3
RTV Mean [2, 19]: 13.4
RTV Median [2, 19]: 11.9
T/C [2, 19]: 79.3%
Tumor Vol. Mean [2, 19]: 1.547 cm^3
Tumor Vol. Median [2, 19]: 1.398 cm^3
RTV Mean [2, 20]: 1
RTV Median [2, 20]: 1
T/C [2, 20]: 97%
Tumor Vol. Mean [2, 20]: 0.116 cm^3
Tumor Vol. Median [2, 20]: 0.115 cm^3
RTV Mean [2, 21]: 1.6
RTV Median [2, 21]: 1.6
T/C [2, 21]: 51.1%
Tumor Vol. Mean [2, 21]: 0.176 cm^3
Tumor Vol. Median [2, 21]: 0.182 cm^3
RTV Mean [2, 22]: 2.6
RTV Median [2, 22]: 2.7
T/C [2, 22]: 54.9%
Tumor Vol. Mean [2, 22]: 0.308 cm^3
Tumor Vol. Median [2, 22]: 0.33 cm^3
RTV Mean [2, 23]: 8.4
RTV Median [2, 23]: 8.4
T/C [2, 23]: 72.2%
Tumor Vol. Mean [2, 23]: 0.962 cm^3
Tumor Vol. Median [2, 23]: 0.995 cm^3
RTV Mean [2, 24]: 12.6
RTV Median [2, 24]: 13
T/C [2, 24]: 73.9%
Tumor Vol. Mean [2, 24]: 1.442 cm^3
Tumor Vol. Median [2, 24]: 1.503 cm^3

From US20220257698A1, “ANGIOTENSIN TYPE 2 (AT2) RECEPTOR AGONISTS FOR USE IN THE TREATMENT OF CANCER” (LANTHIOPEP B.V., priority 2019, published 2022)
